The results in this text go back to ChEMBL document CHEMBL5356950, “Past, present and future of xanthine oxidase inhibitors: design strategies, structural and pharmacological insights, patents and clinical trials” (RSC Med Chem, 2023).

As usually defined, the IC50 is the concentration that inhibits the measured activity by half. As a reminder, the inhibition is how much of the control response was suppressed.

SMILES strings stand for the structures.

Series [1] is described as follows: Toxicity in rat assessed as hypouricemic activity at 1 mg/kg. The class given is organism-based. The conditions noted are these: in vivo.
Series [2] can be described thus: Toxicity in rat assessed as hypouricemic activity at 3 mg/kg measured after 24 hrs. Type of series: organism-based. The conditions noted are these: in vivo.
Series [3] has as its target T1, Xanthine dehydrogenase/oxidase (Bos taurus, UniProt P80457). Nature of the series: Inhibition of Bovine XO using xanthine as substrate assessed as decrease in uric acid level by spectrophotometric analysis.
For series [4], the target named is T2, Solute carrier family 22 member 12 (Homo sapiens, UniProt Q96S37).
T2 sequence (Q96S37 whole entry): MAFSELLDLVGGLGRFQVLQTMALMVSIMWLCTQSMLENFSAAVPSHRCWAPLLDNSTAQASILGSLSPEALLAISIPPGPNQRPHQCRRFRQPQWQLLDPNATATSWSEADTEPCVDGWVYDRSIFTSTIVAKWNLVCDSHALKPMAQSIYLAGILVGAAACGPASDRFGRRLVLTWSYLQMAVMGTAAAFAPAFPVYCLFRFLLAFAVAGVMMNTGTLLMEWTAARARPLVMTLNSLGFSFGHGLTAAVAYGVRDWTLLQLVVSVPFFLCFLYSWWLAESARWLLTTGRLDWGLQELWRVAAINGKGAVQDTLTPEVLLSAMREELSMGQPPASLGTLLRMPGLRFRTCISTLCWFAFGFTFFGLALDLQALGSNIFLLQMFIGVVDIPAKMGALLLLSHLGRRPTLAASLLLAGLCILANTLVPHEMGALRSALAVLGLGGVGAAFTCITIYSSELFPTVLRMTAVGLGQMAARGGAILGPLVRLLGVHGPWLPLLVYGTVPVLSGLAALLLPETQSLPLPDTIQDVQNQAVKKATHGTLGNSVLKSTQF
Nature of the series: Inhibition of URAT1 (unknown origin).

Series [5] has as its target T3, Xanthine dehydrogenase/oxidase (Mus musculus, UniProt Q00519). Nature of the series: Inhibition of mouse serum XO assessed as decrease in uric acid level measured after 6 hrs relative to control.
Series [6] concerns the target T3, Xanthine dehydrogenase/oxidase. Description: Inhibition of mouse serum XO assessed as decrease in uric acid level measured after 2 hrs relative to control.
The target in series [7] is T1, Xanthine dehydrogenase/oxidase. Description: Inhibition of Bovine milk XO measured after 30 mins.
For series [8] the target is unchanged. Nature of the series: Inhibition of Bovine milk XO using xanthine as substrate assessed as decrease in uric acid level measured after 15 mins by spectrophotometric analysis.
Series [9] deals with T4, Xanthine dehydrogenase/oxidase (Homo sapiens, UniProt P47989). Description: Inhibition of XO (unknown origin) relative to control.
T4 sequence (P47989 whole entry): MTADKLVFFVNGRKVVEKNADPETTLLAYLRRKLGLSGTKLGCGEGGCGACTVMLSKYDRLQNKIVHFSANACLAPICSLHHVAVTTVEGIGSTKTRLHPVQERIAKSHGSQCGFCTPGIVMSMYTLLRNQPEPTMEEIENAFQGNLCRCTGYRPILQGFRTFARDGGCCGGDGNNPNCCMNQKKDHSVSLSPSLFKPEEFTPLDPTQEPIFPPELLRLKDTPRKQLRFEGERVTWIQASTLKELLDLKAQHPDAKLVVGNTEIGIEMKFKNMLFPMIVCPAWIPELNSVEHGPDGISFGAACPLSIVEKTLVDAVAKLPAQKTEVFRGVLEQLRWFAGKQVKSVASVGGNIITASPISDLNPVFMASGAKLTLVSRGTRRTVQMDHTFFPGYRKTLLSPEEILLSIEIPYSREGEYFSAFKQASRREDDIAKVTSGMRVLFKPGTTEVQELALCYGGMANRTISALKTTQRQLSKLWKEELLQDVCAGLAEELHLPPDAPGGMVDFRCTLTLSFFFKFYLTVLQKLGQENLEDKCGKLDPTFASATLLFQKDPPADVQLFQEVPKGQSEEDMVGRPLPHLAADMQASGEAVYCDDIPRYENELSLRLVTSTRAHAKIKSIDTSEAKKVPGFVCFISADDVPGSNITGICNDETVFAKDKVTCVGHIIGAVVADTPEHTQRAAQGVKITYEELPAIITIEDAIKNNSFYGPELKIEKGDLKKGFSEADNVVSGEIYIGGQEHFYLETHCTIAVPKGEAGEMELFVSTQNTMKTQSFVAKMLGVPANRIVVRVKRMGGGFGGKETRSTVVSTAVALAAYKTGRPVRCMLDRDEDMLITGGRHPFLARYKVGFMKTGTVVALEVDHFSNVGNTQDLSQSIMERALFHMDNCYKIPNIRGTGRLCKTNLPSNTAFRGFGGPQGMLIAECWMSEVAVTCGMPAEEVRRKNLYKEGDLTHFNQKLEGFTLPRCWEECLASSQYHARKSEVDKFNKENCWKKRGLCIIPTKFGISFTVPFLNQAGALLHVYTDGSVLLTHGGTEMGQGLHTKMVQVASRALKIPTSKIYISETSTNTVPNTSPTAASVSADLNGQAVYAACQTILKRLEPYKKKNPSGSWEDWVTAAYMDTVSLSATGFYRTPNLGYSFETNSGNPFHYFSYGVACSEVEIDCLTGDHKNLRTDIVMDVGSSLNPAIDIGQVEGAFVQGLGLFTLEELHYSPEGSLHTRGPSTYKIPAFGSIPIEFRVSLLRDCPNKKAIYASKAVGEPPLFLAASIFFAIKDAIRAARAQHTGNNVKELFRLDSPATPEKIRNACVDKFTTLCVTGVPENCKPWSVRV
Series [10] has as its target T4, Xanthine dehydrogenase/oxidase. Nature of the series: Inhibition of XO (unknown origin) using xanthine as substrate pre incubated for 10 mins followed by substrate addition measured after 15 mins.
Series [11] deals with T1, Xanthine dehydrogenase/oxidase. Description: Inhibition of Bovine milk XO using xanthine as substrate assessed as decrease in uric acid level measured after 5 mins by spectrophotometric analysis.
Series [12] has as its target T4, Xanthine dehydrogenase/oxidase. Nature of the series: Inhibition of XO (unknown origin) using xanthine as substrate assessed as decrease in uric acid level measured after 3 mins by spectrophotometric analysis.
Series [13] addresses T1, Xanthine dehydrogenase/oxidase. Description: Inhibition of Bovine milk XO using xanthine as substrate measured after 10 mins by spectrophotometric analysis.
Series [14] has the same target. Description: Inhibition of Bovine milk XO using xanthine as substrate measured after 10 mins by spectrophotometric analysis relative to control. The conditions noted are these: cattle.
For series [15] the target is unchanged. Description: Inhibition of Bovine milk XO using xanthine as substrate assessed as decrease in uric acid level pre incubated for 15 mins followed by substrate addition measured after 30 mins by spectrophotometric analysis.
Series [16] has the same target. Nature of the series: Inhibition of Bovine XO using xanthine as substrate assessed as decrease in uric acid level measured after 10 mins by spectrophotometric analysis.
For series [17] the target is unchanged. Nature of the series: Inhibition of Bovine milk XO.
Series [18] has the same target. Description: Inhibition of Bovine milk XO using xanthine as substrate at 100 uM measured after 10 mins by microplate reader analysis relative to control. The conditions noted are these: cattle.
The target in series [19] is T4, Xanthine dehydrogenase/oxidase. Nature of the series: Inhibition of XO (unknown origin) using xanthine as substrate pre incubated for 15 mins followed by substrate addition measured after 30 mins by UV-VIS spectrophotometer analysis.
The target of series [20] is T1, Xanthine dehydrogenase/oxidase. Nature of the series: Inhibition of Bovine milk XO using xanthine as substrate pre incubated for 5 mins followed by substrate addition measured after 30 mins by spectrophotometric analysis.
Series [21] addresses T4, Xanthine dehydrogenase/oxidase. Nature of the series: Inhibition of XO (unknown origin) using xanthine as substrate pre incubated for 5 mins followed by substrate addition measured after 1 mins by spectrophotometric analysis.
The target is the same in series [22]. Description: Inhibition of XO (unknown origin) using xanthine as substrate measured after 10 mins.
Series [23] can be described thus: Toxicity in Wistar rat assessed as decrease in serum uric acid level at 1 mg/kg, po measured after 6 hrs. The class given is organism-based. Further details: scale not given: the % may be the effect or the level left. Particulars: in vivo.
For series [24], the target named is T4, Xanthine dehydrogenase/oxidase. Nature of the series: Inhibition of XO (unknown origin) using xanthine as substrate measured after 2 to 3 mins by UV-spectrophotometric analysis.
Series [25] addresses T2, Solute carrier family 22 member 12. Description: Inhibition of human URAT1.
The target is the same in series [26]. Description: Inhibition of URAT1 (unknown origin) assessed as decrease in uric acid level measured after 15 mins.
Series [27] addresses T1, Xanthine dehydrogenase/oxidase. Nature of the series: Inhibition of Bovine XO using xanthine as substrate assessed as decrease in uric acid level preincubated for 15 mins followed by substrate addition measured after 2 mins by spectrophotometric analysis.

T1 sequence (P80457 whole entry): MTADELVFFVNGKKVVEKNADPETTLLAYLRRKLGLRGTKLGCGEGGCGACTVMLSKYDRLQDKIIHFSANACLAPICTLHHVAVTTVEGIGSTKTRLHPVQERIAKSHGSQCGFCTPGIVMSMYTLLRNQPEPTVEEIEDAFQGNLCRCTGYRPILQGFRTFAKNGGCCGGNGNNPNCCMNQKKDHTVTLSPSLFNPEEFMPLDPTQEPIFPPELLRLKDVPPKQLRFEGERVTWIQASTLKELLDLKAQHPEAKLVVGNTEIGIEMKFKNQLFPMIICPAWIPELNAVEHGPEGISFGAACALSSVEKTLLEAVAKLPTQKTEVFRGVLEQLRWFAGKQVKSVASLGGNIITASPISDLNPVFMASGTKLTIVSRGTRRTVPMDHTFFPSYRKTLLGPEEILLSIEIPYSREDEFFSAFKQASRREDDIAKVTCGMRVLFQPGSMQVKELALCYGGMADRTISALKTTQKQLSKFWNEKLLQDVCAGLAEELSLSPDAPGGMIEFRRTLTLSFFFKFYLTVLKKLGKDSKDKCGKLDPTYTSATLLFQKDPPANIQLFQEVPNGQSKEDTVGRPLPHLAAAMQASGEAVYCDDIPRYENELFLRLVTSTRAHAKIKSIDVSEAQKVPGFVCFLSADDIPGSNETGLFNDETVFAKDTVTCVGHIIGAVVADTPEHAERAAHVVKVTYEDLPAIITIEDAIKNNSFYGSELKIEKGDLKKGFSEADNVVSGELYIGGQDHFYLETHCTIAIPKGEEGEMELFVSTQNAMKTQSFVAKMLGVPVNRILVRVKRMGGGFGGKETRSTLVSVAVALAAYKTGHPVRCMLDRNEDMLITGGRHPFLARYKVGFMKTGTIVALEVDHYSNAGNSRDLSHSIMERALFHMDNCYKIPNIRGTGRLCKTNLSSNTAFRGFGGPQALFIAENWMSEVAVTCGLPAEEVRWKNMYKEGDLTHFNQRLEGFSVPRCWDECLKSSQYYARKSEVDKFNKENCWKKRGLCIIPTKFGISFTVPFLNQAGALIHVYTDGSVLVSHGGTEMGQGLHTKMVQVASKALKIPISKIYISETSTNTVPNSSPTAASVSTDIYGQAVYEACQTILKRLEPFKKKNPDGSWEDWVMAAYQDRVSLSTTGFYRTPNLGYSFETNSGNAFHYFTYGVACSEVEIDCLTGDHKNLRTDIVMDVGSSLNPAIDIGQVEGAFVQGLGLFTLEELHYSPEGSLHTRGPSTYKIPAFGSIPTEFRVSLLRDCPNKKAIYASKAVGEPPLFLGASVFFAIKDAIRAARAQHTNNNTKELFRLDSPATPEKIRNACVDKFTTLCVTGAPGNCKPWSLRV
T3 sequence (Q00519 whole entry): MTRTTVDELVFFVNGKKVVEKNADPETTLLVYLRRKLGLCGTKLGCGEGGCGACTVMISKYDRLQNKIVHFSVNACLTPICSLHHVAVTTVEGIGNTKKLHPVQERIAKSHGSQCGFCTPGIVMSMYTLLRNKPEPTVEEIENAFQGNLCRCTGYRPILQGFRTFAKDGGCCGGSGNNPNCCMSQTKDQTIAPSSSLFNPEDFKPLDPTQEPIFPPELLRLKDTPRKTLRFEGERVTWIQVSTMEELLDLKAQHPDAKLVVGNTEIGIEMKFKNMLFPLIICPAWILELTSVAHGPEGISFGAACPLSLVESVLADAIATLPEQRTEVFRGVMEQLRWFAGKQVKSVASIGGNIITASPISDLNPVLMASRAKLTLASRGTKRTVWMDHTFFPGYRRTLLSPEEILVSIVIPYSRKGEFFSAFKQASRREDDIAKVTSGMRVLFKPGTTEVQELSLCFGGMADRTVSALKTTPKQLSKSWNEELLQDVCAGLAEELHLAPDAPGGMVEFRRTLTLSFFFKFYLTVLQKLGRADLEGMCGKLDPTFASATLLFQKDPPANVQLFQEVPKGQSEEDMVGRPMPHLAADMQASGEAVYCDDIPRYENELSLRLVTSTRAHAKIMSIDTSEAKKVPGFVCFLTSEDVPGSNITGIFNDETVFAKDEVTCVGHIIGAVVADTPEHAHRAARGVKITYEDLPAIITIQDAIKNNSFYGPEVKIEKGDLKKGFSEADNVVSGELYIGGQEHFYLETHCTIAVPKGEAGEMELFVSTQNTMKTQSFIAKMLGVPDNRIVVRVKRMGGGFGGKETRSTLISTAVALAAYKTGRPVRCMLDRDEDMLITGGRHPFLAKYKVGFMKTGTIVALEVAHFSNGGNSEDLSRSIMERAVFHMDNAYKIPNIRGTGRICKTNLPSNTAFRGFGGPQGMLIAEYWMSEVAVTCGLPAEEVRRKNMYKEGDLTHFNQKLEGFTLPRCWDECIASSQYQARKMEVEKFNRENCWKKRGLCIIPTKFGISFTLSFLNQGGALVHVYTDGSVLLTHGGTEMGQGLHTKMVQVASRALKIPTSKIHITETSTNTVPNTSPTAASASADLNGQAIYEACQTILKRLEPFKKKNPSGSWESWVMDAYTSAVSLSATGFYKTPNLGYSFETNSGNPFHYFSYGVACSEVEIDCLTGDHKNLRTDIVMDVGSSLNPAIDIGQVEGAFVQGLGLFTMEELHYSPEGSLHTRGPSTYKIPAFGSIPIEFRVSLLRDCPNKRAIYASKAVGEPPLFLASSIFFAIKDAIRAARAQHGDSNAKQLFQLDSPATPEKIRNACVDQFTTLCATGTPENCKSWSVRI

`Cc1nc(-c2ccc(OCC(C)(C)C)c(-n3cnnn3)c2)sc1C(=O)O`: the values for the Activity in [1] and in series [2] were 50% and 40%, respectively. Take `O=C(O)c1ccc2c(c1)C(=O)N(c1ccccc1)C2=O`: the half-inhibitory concentration (IC50) in series [3] is 7.15 µM.

On to `O=C(Nc1ccc(-c2nnn[nH]2)cc1)c1c(O)[nH]c(=S)[nH]c1=O`, for which the 50% inhibitory concentration (IC50) in [4] was determined as 0.39 µM. Take `Oc1ncnc2[nH]ncc12` [ALLOPURINOL]: the “inhibition (INH)” value in [5] worked out at 14%; in [6], 33%. As for `Cc1nc(-c2cc(C#N)c3c(c2)CC2(CCCC2)O3)[se]c1C(=O)O`, in series [7], the IC50 was found to be 0.00158 µM. Turning to `O=C(/C=C/c1cc(O)cc(O)c1)c1ccc(O)cc1O`, the IC50 in series [8] was found to be 22.5 µM. As to `Clc1cc2nc(-c3ccncc3)[nH]c2cc1Cl`, in series [9], the “inhibition (INH)” value was 56%. Consider `O=C1CC(c2ccccc2)Oc2c3c(c(CO)c(O)c21)OCN(c1ccc(F)cc1)C3` (stereo unspecified), for which the “inhibition (INH)” value in [9] is listed as 84.27%. As for `CN1C(=O)C(=Cc2ccc(Cl)cc2Cl)C(=O)N(C)C1=O`, in series [10], half-maximal inhibition (IC50) was put at 21000 µM.

Take `O=c1oc2cc(O)cc(O)c2cc1-c1cccc(O)c1`: the half-inhibitory concentration (IC50) in series [11] came out at 2.13 µM.

As for `COc1ccc2c(c1)c(CC(=O)O)c(C)n2C(=O)c1ccc(Cl)cc1` [INDOMETHACIN], in [12], the IC50 came to 86 µM. `Cc1ccc2c(-c3ccc(C(=O)O)c(O)c3)cc(C#N)n2n1` displayed a half-inhibitory concentration (IC50) in series [13] of 0.003 µM. For the same compound, in [14], the “inhibition (INH)” value stood at 60%. With `Cc1nc(-c2ccc(OCC(C)C)c(-n3cnnn3)c2)sc1C(=O)O`, the Activity in [1] was determined as 50%; in [2], 40%.

In the case of `Nn1c(S)nnc1-c1cc(-c2ccccc2)nn1Cc1ccccc1`, the IC50 in [15] is 65.4 µM. `CCC1(C)Cc2cc(-c3nc(C)c(C(=O)O)s3)cc(C#N)c2O1` (stereo unspecified) gave an IC50 in series [7] of 0.00135 µM.

As to `O=C(NC(Cc1ccccc1)C(=O)O)c1ccc2c(c1)C(=O)c1ccccc1C2=O` (stereo unspecified), the half-inhibitory concentration (IC50) in series [16] was found to be 2.9 µM.

On to `O=[N+]([O-])c1ccc(CSc2nnc(-c3cc(-c4ccccc4)nn3Cc3ccccc3)o2)cc1`, for which the IC50 in series [15] was determined as 72.4 µM. On to `OCc1ccc(O)c(O)c1`, for which, in series [17], half-maximal inhibition (IC50) required 3 µM. As for `COc1cc(OC)c(C(=O)/C=C/c2ccccc2F)c(O)c1C(=O)/C=C/c1ccccc1F`, the IC50 in series [16] came out at 0.728 µM.

`N#Cc1cn(-c2ccc(C(=O)O)c(O)c2)cc1-c1cccs1`: the inhibition at 100 µM in series [18] is greater than 90%. Consider `CCCCc1cn(-c2ccc(C(=O)O)c(O)c2)cc1C#N`, for which the inhibition at 100 µM in series [18] was greater than 90%. With `O=Cc1ccc(C2Nc3ccccc3-c3cc(-c4ccccc4)nn32)c([N+](=O)[O-])c1` (stereo unspecified), in series [19], half-maximal inhibition (IC50) required 11 µM.

`Cc1nc(-c2cc(C#N)c3c(c2)CC(C)O3)sc1C(=O)O` (stereo unspecified) gave a half-inhibitory concentration (IC50) in [7] of 0.00184 µM. In the case of `Cc1nn(-c2ccc(OCCC(C)C)c(C#N)c2)nc1C(=O)O`, the IC50 in [20] came out at 0.084 µM. `COc1ccc(-c2cc3cc([N+](=O)[O-])ccc3oc2=O)cc1`: half-maximal inhibition in series [21] (IC50) was put at 8.4 µM. Compound `Cc1cc(C)c(C[n+]2cn(CCO)c3ccccc32)c(C)c1` yielded an IC50 in series [22] of 1.25 µM.

Take `Cc1cc(-c2n[nH]c(-c3ccc(OCC(C)C)c(C#N)c3)n2)ccn1`: in [23], the Activity was 67.5%. For the compound `COc1ccc([C@@H]2C/C(=N\c3ccc([N+](=O)[O-])cc3Cl)C3C(O)=CC(O[C@H]4C[C@@H](OC5O[C@H](C)[C@@H](O)[C@H](O)C5O)[C@H](O)[C@@H](O)[C@@H]4O)=CC3O2)cc1O` (stereo partly specified), in series [24], the half-maximal inhibitory concentration (IC50) is 0.263 µM.

As to `COC(=O)C(Sc1nnc(Br)n1-c1ccc(Br)c2ccccc12)C(=O)OC`, in [25], the IC50 came out at 0.0197 µM. Regarding `N#Cc1c(Cl)cc(NS(=O)(=O)c2ccccc2OC(F)(F)F)cc1Cl`, in series [26], the IC50 worked out at 0.004 µM.

On to `Cc1nc(-c2cc(C#N)c3c(c2)CCC(C)(C)O3)sc1C(=O)O`, for which the half-inhibitory concentration (IC50) in series [7] was 0.00265 µM. As to `COC(=O)[C@H]1C[C@@H](n2cc(-c3ccccc3)nn2)[C@H](O)C[C@H]1C(=O)OC`, the half-maximal inhibitory concentration (IC50) in series [22] was determined as 0.586 µM. Turning to `Cc1cc(-c2nc(-c3ccc(OCC(C)C)c([N+](=O)[O-])c3)n[nH]2)ccn1`, the Activity in series [23] came to 66.5%. In the case of `O=c1[nH]c(-c2ccc(OCC3CCCCC3)c(-n3cnnn3)c2)no1`, in [27], the concentration for half-maximal inhibition (IC50) came out at 0.121 µM.

Turning to `N#Cc1ccc(NS(=O)(=O)c2ccccc2OC(F)(F)F)cc1Cl`, the IC50 in series [26] is 0.006 µM. As to `Cc1nc(-c2ccc(OC(C)C)c(-n3cnnn3)c2)sc1C(=O)O`, the Activity in [1] is on record as 50%. `O=[N+]([O-])c1cc(C2=NC3=CN=CN(O)C3S2)ccc1Oc1ccccc1F` (stereo unspecified) registered an IC50 in series [13] of 0.0054 µM. Turning to `CCOC(=O)c1sc(-c2cc(I)c3c(c2)CCC(C)(C)O3)nc1C`, the half-maximal inhibitory concentration (IC50) in series [7] was determined as 0.0013 µM. Compound `Cc1nc(-c2cc(I)c3c(c2)CCC(C)(C)O3)sc1C(=O)O` displayed an IC50 in series [7] of 0.00187 µM. In [7], `Cc1nc(-c2cc(C#N)c3c(c2)CCC(C)(C)O3)[se]c1C(=O)O` yielded an IC50 of 0.00236 µM. `COCOc1cccc(-c2c[nH]cc2C#N)c1` yielded an inhibition at 100 µM in [18] greater than 90%. `Cc1nc(-c2cc(C#N)c3c(c2)CC2(CCCCC2)O3)sc1C(=O)O` showed an IC50 in series [7] of 0.0014 µM.
